This is an account of results in paper PMC11232401, “Characterization of antimalarial activity of artemisinin-based hybrid drugs” (Antimicrobial Agents and Chemotherapy, 2024).

Molecules are shown by their SMILES. Where two headings read alike, the source gives them in different places.

In experiment [1] the test system is F32-ART (ART-resistant) strain of P. falciparum. Nature of the experiment: Standard chemosensitivity assay (SYBR Green I, 48 h). The experiment is classed as cell-based. The conditions noted are these: Plasmodium falciparum, F32, 48 h. The protocol: (§1) Compounds were dissolved in DMSO and diluted in RPMI-1640 medium into five different concentrations (0.1–1000 nM). Each well of 96-well plates was filled with 100 µL drug at each concentration and 100 µL synchronized ring-stages of the ART-resistant strain F32-ART or its ART-susceptible twin strain F32-TEM at final parasitemia of 1% and 2% hematocrit. Plates were incubated for 48 h at 37°C and 5% CO2. The drugs were washed out in 1× phosphate-buffered saline (PBS) (Sigma-Aldrich), the plates were frozen and thawed, and then, the lysed parasites were transferred to black 96-well plates. SYBR Green I (Fisher Scientific, Illkirch, France) at a 2× concentration in a lysis buffer (20 mM TRIS base, pH 7.5, 20 mM EDTA, 0.008% wt/vol saponin, 0.08% wt/vol Triton X-100) was then added and the plates were incubated for 1 h at room temperature in the dark. Fluorescence was measured at 485 nm excitation and 528 nm emission in a VICTOR Nivo plate reader (Perkin Elmer, Waltham, USA) and the IC50s values were then calculated using Prism 7 (GraphPad, San Diego, USA).
(§2) ^[a] Parasites were exposed for 48 h of incubation in the presence of drugs, then parasite viability was determined using SYBR Green I. Mean of two independent experiments. DHA = dihydroartemisinin; SD = standard deviation.

The test system of experiment [2] is F32-TEM (ART-sensitive) strain of P. falciparum. Described as above. Format: cell-based. The conditions noted are these: Plasmodium falciparum, F32, 48 h, read-out: IC50 (nM, mean ± SD) for P. falciparum (48 h), F32-TEM (ART-sensitive). As for the experimental part: as §1, §2
Experiment [3] has as its system 3D7 strain of P. falciparum. Nature of the experiment: Host cell-mediated drug degradation: antiplasmodial activity of uRBC supernatants. Format: cell-based, Plasmodium falciparum. The conditions noted are these: for IC50: Plasmodium falciparum, 3D7, 0.16 h, 500 nM drug, 3D7, SYBR Green I, median ± SEM (AQ mean, 95% CI), read-out: IC50 of supernatants harvested at 0.16 h; for Fold changes (24 h/0.16 h): 3D7, ratio of IC50 at 24 h to IC50 at 0.16 h. The protocol:
Each well of 96-well plates was filled with 125 µL drug (1000 nM) and 125 µL uninfected red blood cells (uRBC), which were mixed to obtain a final drug concentration of 500 nM and 2.5% or 1.0% hematocrit. The plates were incubated at 37°C in the standard gas mixture. After each time point (10 min, 6 h, and 24 h), supernatants were carefully harvested and stored at −80°C until use. […] Next, supernatants were diluted in a complete medium in six different dilutions and were aliquoted in new plates. The antimalarial activity of these supernatants and freshly dissolved drugs was determined in an asynchronous parasite culture of P. falciparum (3D7, D10, and W2 strains) for 72 h using the same method described above, and parasite viability was assessed by the pLDH ([38]) and SYBR Green I ([41]) methods. Only the experiments where the IC50 values of the supernatants harvested at 10 min were the same as those of the respective fresh drugs were considered for determining equivalent drug concentration. […] Decay in drug concentration was estimated by using the normalized slope values calculated from linear regression fits using the slope values of a standard curve as reference. Three independent experiments were performed using two replicates.
Figure S5: Data associated to Figure 3 in the main text of the manuscript. Panel A: Representative response-concentration curves of the antiplasmodial activity of supernatant-derived uRBC (2.5% hematocrit) harvested at indicated times (0.16, 6, and 24 h). Drug activity on parasite viability was determined 72 h after parasite incubation (3D7 strain, asynchronous). Values were subtracted from control (without treatment), transformed, and normalized to calculate nonlinear fit. Parasite viability was determined by SYBR Green I. Values are mean and error bars are the standard deviation of a single experiment, each concentration in duplicate. […] Footnotes: ^[a] Parasite viability was determined by SYBR Green I. ^[b^] Parasite viability was determined by pLDH readout. Values are median ± SEM of three independent experiments, each concentration in duplicate. ^[c^] […] These values are expressed as mean and 95% confidence interval (CI) of one experiment, each concentration in duplicate. […] Unpaired two-tailed t-test at 95% CI: *p <0.05; **p <0.01.

For experiment [4], the system named is Asynchronous NF54 strain of P. falciparum. Nature of the experiment: Speed of drug activity (pLDH). The experiment is classed as cell-based, Plasmodium falciparum. The conditions noted are these: for IC50: Plasmodium falciparum, NF54, asynchronous, mean (95% CI); for Conclusion (speed of antiparasitic activity): from IC50 at 24, 48, 72 h. The protocol:
Each well of 96-well plates was filled with 100 µL drug and 100 µL culture containing asynchronous P. falciparum (NF54 strain) parasites, which were mixed to obtain a final parasitemia of 1.0% to 1.5% and 1.0% hematocrit. The plates were incubated for 24, 48, and 72 h at 37°C with a standard gas mixture. […] Parasite viability was measured using the pLDH method, and IC50 values were calculated as described above. Three independent experiments were performed using two technical replicates.
Figure S3: Speed of antiparasitic activity of hybrids (1) and (2) against CQ-sensitive NF54 strain of P. falciparum. Panel A: Representative response-concentration curves. Panel B: A table summarizing the results. Footnotes for table: ^[a] Parasite viability was accessed at each indicated time (24, 48, or 72 h) after addition of drugs. Values are the mean and 95% confidence interval of one experiment using each concentration of compounds in duplicate. Parasite viability was determined by parasite lactate dehydrogenase (pLDH) assay. DHA = dihydroartemisinin; ATO = atovaquone.

[5] abbreviates: read-out: IC50 (nM, mean ± SD) for P. falciparum (48 h), F32-ART (ART-resistant).
[6] abbreviates: viability at 24 h, read-out: IC50, 24 h.
Setting [7] is: viability at 48 h, read-out: IC50, 48 h.
The mark [8] stands for this setting: viability at 72 h, read-out: IC50, 72 h.

Take `COCCOCCOCCOCCn1c(-c2ccc(-n3cc(-c4ccc(OC5OC6OC7(C)CCC8C(C)CCC(C5C)C68OO7)cc4)nn3)cc2)nc2ccccc21` (centres unmarked) [Hybrid 1]: the 50% inhibitory concentration (IC50) is 4.2 ± 1.3 nM in experiment [1] (setting [5]); 2.6 ± 0.6 nM in experiment [2]; 1.3 ± 0.44 nM in experiment [3] (uRBC 2.5% hematocrit); 2.4 nM in experiment [4] (setting [6]); 3 nM in experiment [4] (setting [7]); 2 nM in experiment [4] (setting [8]). For the same molecule, the “Fold changes (24 h/0.16 h)” value in experiment [3] (uRBC 1.0% hematocrit) was found to be 1.0 ± 0.23; in experiment [3] (uRBC 2.5% hematocrit), 3; in experiment [3] (uRBC 2.5% hematocrit, listed as LH70 (1)), 3.6 ± 0.8. Also, the “Conclusion (speed of antiparasitic activity)” value (“Conclusion” for short) in experiment [4] was “Fast-acting”.

Regarding `C[C@H]1[C@@H](O)O[C@@H]2O[C@@]3(C)CC[C@H]4[C@H](C)CC[C@@H]1[C@@]24OO3` [DHA, dihydroartemisinin, reference compound], the IC50 in experiment [1] (setting [5]) was 0.8 ± 0.8 nM; in experiment [1] (read-out: IC50 in the standard chemosensitivity assay) it was < 5 nM; in experiment [2] it was 2 ± 0.2 nM; in experiment [3] (uRBC 1.0% hematocrit), 4.5 ± 1.1 nM; in experiment [3] (uRBC 2.5% hematocrit) it was 6.7 ± 2.5 nM; in experiment [4] (setting [6]), 8.3 nM. Moreover, the values for the IC50 in experiment [4] (setting [7]) and in experiment [4] (setting [8]) were 2.9 nM and 2.7 nM, respectively. Moreover, the “loss in supernatant activity, supernatant harvested at 6 h” value in experiment [3] (high hematocrit (2.5%)) is listed as “fourfold”. Further, in experiment [3] (low hematocrit (1%)), the “loss in antiplasmodial activity of supernatants harvested at 6 h” value is given as 2 fold. The “Conclusion” value in experiment [4] is given as “Fast-acting”.

As for `CC1CCC2C(C)C(OC(=O)CCC(=O)OCCNc3ccnc4cc(Cl)ccc34)OC3OC4(C)CCC1C32OO4` (centres unmarked) [Hybrid 2], the half-maximal inhibitory concentration (IC50) in experiment [1] (setting [5]) came out at 4.5 ± 2.5 nM; in experiment [2], 4.8 ± 1.2 nM; in experiment [3] (uRBC 1.0% hematocrit) it was 3.4 ± 0.33 nM; in experiment [3] (uRBC 2.5% hematocrit), 2.8 ± 0.51 nM; in experiment [4] (setting [6]), 9.4 nM; in experiment [4] (setting [7]) it was 4.3 nM. Also, the IC50 in experiment [4] (setting [8]) was 5.6 nM. Besides, the “Fold changes (24 h/0.16 h)” value in experiment [3] (uRBC 1.0% hematocrit) is on record as 1.1 ± 0.31; in experiment [3] (uRBC 2.5% hematocrit), 10; in experiment [3] (uRBC 2.5% hematocrit, listed as 163A (2)), 10.7 ± 4.1. For the same molecule, in experiment [4], the “Conclusion” value is “Fast-acting”.
